According to patent US10226471B2, “Modified-release dosage forms of 5-HT2C agonists useful for weight management” (Arena Pharmaceuticals, Inc., priority 2010, dated 2019):

Experiments:
[1] = Safety in three randomized, double-blind, placebo-controlled trials (BLOOM, BLOSSOM, BLOOM-DM): discontinuation due to adverse reactions; type: in vivo, human
Protocol: (§1) The safety of Compound 1 has been evaluated in three randomized, double-blind, placebo-controlled trials, one of 2 years duration (“BLOOM” trial) and two of 1 year duration (“BLOSSOM” and “BLOOM-DM” trials). A total of 3451 patients were exposed to Compound 1 10 mg twice daily for up to 1 year; 571 patients were exposed for up to 2 years; and an additional 896 patients were exposed to Compound 1 10 mg once daily for up to 1 year. The BLOOM-DM study included only patients with type 2 diabetes mellitus; BLOOM and BLOSSOM excluded patients with diabetes.
The discontinuation rate due to adverse reaction was 7.1% for non-diabetic patients and 8.6% for patients with type 2 diabetes receiving Compound 1. The most common adverse reactions leading to discontinuation more often among Compound 1 treated patients than placebo were headache (1.3% vs. 0.8%), depression (0.9% vs. 0.5%) and dizziness (0.7% vs. 0.2%).

[2] = Adverse events in BLOOM and BLOSSOM (Table A); type: in vivo, human; conditions: 10 mg BID, N = 3195
Protocol: as §1
(§2) The most common adverse reactions for non-diabetic patients treated with Compound 1 compared to placebo were headache, upper respiratory tract infection, nasopharyngitis, dizziness, and nausea. The most common adverse reactions for diabetic patients were hypoglycemia, headache, back pain, nasopharyngitis, and nausea. Adverse events that were reported by ≥5% of patients and were more frequently reported by patients taking Compound 1 compared to placebo are summarized in Table A (BLOOM and BLOSSOM) and Table B (BLOOM DM).

[3] = Adverse events in BLOOM-DM, patients with type 2 diabetes (Table B); type: in vivo, human; conditions: 10 mg BID
Protocol: as §1, §2

[4] = Clinical trial of a single oral dose under fed and fasted conditions; type: in vivo, human; conditions: single oral dose 10 mg
Protocol: A clinical trial was performed to evaluate the safety and pharmacokinetic profile of a single oral dose of Compound 1 (10 mg) administered to healthy male and female subjects aged 18 to 60 years (inclusive) under fed and fasted conditions. […] Cmax was reduced by approximately 10% in the fed compared to fasted state, but a lack of food effect was not proven. […] Compound 1 was generally well tolerated when dosed in the fasted state and after a high-fat breakfast. There were a higher number of adverse events when dosed in the fasted state, (18 compared to 6) including two moderate intensity (nausea and headache) and one severe (vomiting) intensity events occurring in a single subject.

[5] = Pharmacokinetics parameters from an open-label, single-dose, cross-over clinical study (GastroPlus input); type: in vivo; conditions: human, oral, 10 mg, clinical study in the fed and fasted state
Protocol: The GastroPlus™ software (Simulations Plus, Inc., Lancaster, Calif.) was used to simulate the pharmacokinetics of Compound 1 from immediate-release and modified-release tablets. The release profile follows first order release kinetics and T80% is approximately 8 hours. The lower limit was not defined. Pharmacokinetics parameters of Compound 1 were obtained from an open-label, single-dose, cross-over clinical study in the fed and fasted state. Input variables and default values for GastroPlus™ simulation were as follows

[6] = not told
[7] = subcutaneous Alzet pump, 1 mg/kg/h for four days; mean
[8] = continuous subcutaneous infusion 0.630 mg/kg/h, Day 28, mean
Protocol: (§3) On Day 28, animals were placed in Culex® cages for automated blood collection. […] Analyte plasma concentrations were determined by LC/MS/MS. Noncompartmental PK analysis was performed using WinNonlin® (Pharsight®, Mountain View, Calif.) to determine t1/2, Cmaxss, Css and AUClast.

in vivo [9] = conditions: male, Sprague-Dawley, rat, plasma, po, 24 mg/kg/day
in vivo [10] = conditions: male, SD, rat, plasma
Protocol: as §3

clinical = conditions: human, brain (lumbar cerebrospinal fluid measured) and plasma, oral, 10 mg
[11] = Phase 3 clinical trials of lorcaserin for weight management
[12] = phase 3 trial, after 12 months, ITT-LOCF

For `C[C@H]1CNCCc2ccc(Cl)cc21` [Compound 1], the “depression leading to discontinuation” value ([1]; Compound 1 treated patients) was 0.9%, the “dizziness leading to discontinuation” value ([1]; Compound 1 treated patients) was 0.7% and the “headache leading to discontinuation” value ([1]; Compound 1 treated patients) was 1.3%. For the same compound, the “discontinuation rate due to adverse reaction” value ([1]; non-diabetic patients) was 7.1%, the “discontinuation rate due to adverse reaction” value ([1]; patients with type 2 diabetes) was 8.6% and the “Back pain, number of patients” value [2] was 201. For the same compound, the “Back pain, patients (%)” value [2] was “(6.3) %”, the “Constipation, number of patients” value [2] was 186 and the “Constipation, patients (%)” value [2] was “(5.8) %”. The “Diarrhea, number of patients” value [2] was 207, the “Diarrhea, patients (%)” value [2] was “(6.5) %” and the “Dizziness, number of patients” value [2] was 270. For the same compound, the “Dizziness, patients (%)” value [2] was “(8.5) %”, the “Dry mouth, number of patients” value [2] was 169 and the “Dry mouth, patients (%)” value [2] was “(5.3) %”. For the same compound, the “Fatigue, number of patients” value [2] was 229, the “Fatigue, patients (%)” value [2] was “(7.2) %” and the “Headache, number of patients” value [2] was 537. For the same compound, the “Headache, patients (%)” value [2] was “(16.8) %”, the “Nasopharyngitis, number of patients” value [2] was 414 and the “Nasopharyngitis, patients (%)” value [2] was “(13.0) %”. For the same compound, the “Nausea, number of patients” value [2] was 264, the “Nausea, patients (%)” value [2] was “(8.3) %” and the “Upper respiratory tract infection, number of patients” value [2] was 439. The “Upper respiratory tract infection, patients (%)” value [2] was “(13.7) %”, the “Urinary tract infection, number of patients” value [2] was 207 and the “Urinary tract infection, patients (%)” value [2] was “(6.5) %”. The “Back pain, patients (%)” value [3] was “(11.7) %”, the “Cough, patients (%)” value [3] was “(8.2) %” and the “Dizziness, patients (%)” value [3] was “(7.0) %”. For the same compound, the “Fatigue, patients (%)” value [3] was “(7.4) %”, the “Gastroenteritis viral, patients (%)” value [3] was “(7.0) %” and the “Headache, patients (%)” value [3] was “(14.5) %”. The “Back pain, number of patients” value ([3]; N = 3195) was 30, the “Cough, number of patients” value ([3]; N = 3195) was 21 and the “Dizziness, number of patients” value ([3]; N = 3195) was 18. The “Fatigue, number of patients” value ([3]; N = 3195) was 19, the “Gastroenteritis viral, number of patients” value ([3]; N = 3195) was 18 and the “Headache, number of patients” value ([3]; N = 3195) was 37. The “Hypertension, number of patients” value ([3]; N = 3195) was 13, the “Hypertension, patients (%)” value ([3]; N = 3195) was “(5.1) %” and the “Hypoglycemia (including asymptomatic), number of patients” value ([3]; N = 3195) was 75. For the same compound, the “Hypoglycemia (including asymptomatic), patients (%)” value ([3]; N = 3195) was “(29.3) %”, the “Hypoglycemia, symptomatic, number of patients” value ([3]; N = 3195) was 19 and the “Hypoglycemia, symptomatic, patients (%)” value ([3]; N = 3195) was “(7.4) %”. The “Influenza, number of patients” value ([3]; N = 3195) was 15, the “Influenza, patients (%)” value ([3]; N = 3195) was “(5.9) %” and the “Nasopharyngitis, number of patients” value ([3]; N = 3195) was 29. For the same compound, the “Nasopharyngitis, patients (%)” value ([3]; N = 3195) was “(11.3) %”, the “Nausea, number of patients” value ([3]; N = 3195) was 24 and the “Nausea, patients (%)” value ([3]; N = 3195) was “(9.4) %”. For the same compound, the “Procedural pain, number of patients” value ([3]; N = 3195) was 13, the “Procedural pain, patients (%)” value ([3]; N = 3195) was “(5.1) %” and the “Urinary tract infection, number of patients” value ([3]; N = 3195) was 23. For the same compound, the “Urinary tract infection, patients (%)” value ([3]; N = 3195) was “(9.0) %”, the “number of adverse events” value ([4]; after a high-fat breakfast) was 6 and the “number of adverse events” value ([4]; fasted state) was 18. For the same compound, the “food effect on overall exposure” value ([4]; fed vs fasted) was “no food effect on overall exposure”, the “reduction of Cmax in the fed compared to fasted state” value ([4]; high-fat breakfast) was “approximately 10%” and the “time of maximum plasma concentrations, fed compared to fasted” value ([4]; high-fat breakfast) was “statistically significant delay”. The blood plasma ratio ([5]; blood and plasma, read-out: Blood to plasma concentration ratio) was 1.3, the clearance ([5]; plasma) was 326 mL/min and the Vd ([5]; plasma, read-out: Apparent volume of distribution) was 307 L. The Papp [6] was 3.54 ×10⁻⁶ cm/s, the t1/2 (Day 6, oral gavage 24 mg/kg/day for 6 days, not fasted, composite profiles, 24 mg/kg/day) was 4.02 h and the “Css = AUC24 hr ÷ dosing interval (24 h)” value (calculated for the infusion rate of the chronic study) was 213 ng/mL. For the same compound, the Cl [7] was 49.3 ± 4.83 mL/min/kg, the “Css from 42 to 90 hours” value [7] was 340 ng/mL and the “Css, 0 to 21 h” value [8] was 155 ng/mL. It also gave an AUC(0-inf) (in vivo [9]) of 5210 ng·h/mL, an AUC(0-t) (in vivo [9]) of 5210 ng·h/mL and a Cmax (in vivo [9]) of 700 ng/mL. The Tmax (in vivo [9]) was 0.5 h, the half-life (in vivo [9]; t1/2, Day 6, oral gavage 24 mg/kg/day for 6 days, not fasted, composite profiles) was 4 h and the AUC(0-t) (in vivo [10]; po, 24 mg/kg/day) was 4170 ng·h/mL. It also gave a Cmax (in vivo [10]; po, 24 mg/kg/day) of 553 ng/mL, an AUC(0-t) (in vivo [10]; sc, 0.63 mg/kg/h) of 3630 ng·h/mL and a Cmax (in vivo [10]; sc, 0.63 mg/kg/h) of 213 ng/mL. The Kp (clinical) was < 1, the logP (physchem) was 2.56 and the pKa (physchem) was 9.53. The “excess body weight lost” value ([11]; first phase 3 trial, based on a normal BMI of 25) was “about one-third”, the average weight loss [11, 12] was 12.7 pounds and the “average weight loss, of body weight” value [11, 12] was 5.8%. The “average weight lost, of their weight” value ([11]; pivotal phase 3 clinical trial program) was “about 8%”, the “patients achieved at least 10% weight loss” value ([11]; pivotal phase 3 clinical trial program, treated for up to two years) was “over one-third” and the “average weight loss, top quartile of patients” value ([11]; second phase 3 trial) was 35 pounds. The “average weight loss, top quartile of patients, of body weight” value ([11]; second phase 3 trial) was 16% and the “development of FDA-defined valvulopathy (echocardiograms)” value ([11]; two-year treatment period) was “no apparent drug-related effect”.
